In paper PMC8620908, “Design, Synthesis, In Vitro Anticancer Evaluation and Molecular Modelling Studies of 3,4,5-Trimethoxyphenyl-Based Derivatives as Dual EGFR/HDAC Hybrid Inhibitors” (Pharmaceuticals, 2021):
Like-named read-outs stand apart in the source and are kept apart here.

Legend:
MCF-7 = assay: Antiproliferative MTT assay, MCF-7; conditions: Homo sapiens, MCF7, read-out: Antiproliferative Activity IC50 ± SEM, MCF-7
HCT116 = assay: Antiproliferative MTT assay, HCT116; conditions: Homo sapiens, HCT-116, read-out: Antiproliferative Activity IC50 ± SEM, HCT116
A549 = assay: Antiproliferative MTT assay, A549; conditions: Homo sapiens, A549, read-out: Antiproliferative Activity IC50 ± SEM, A549
HepG2 = assay: Antiproliferative MTT assay, HepG2; conditions: Homo sapiens, HepG2, read-out: Antiproliferative Activity IC50 ± SEM, HepG2
Caspase-3 = Caspase-3 level assay in HepG2 cancer cell line; assay type: cell-based, human
Bax = Bax level assay in HepG2 cancer cell line; assay type: cell-based; conditions: HepG2 cancer cell line
Caspase-8 = Caspase-8 level assay in HepG2 cancer cell line; assay type: cell-based, human; conditions: HepG2 cancer cell line
EGFR = EGFR (Homo sapiens, UniProt P00533); assay: EGFR-TK inhibition, cell-free assay; assay type: biochemical
Sequence of EGFR (P00533 25-1210): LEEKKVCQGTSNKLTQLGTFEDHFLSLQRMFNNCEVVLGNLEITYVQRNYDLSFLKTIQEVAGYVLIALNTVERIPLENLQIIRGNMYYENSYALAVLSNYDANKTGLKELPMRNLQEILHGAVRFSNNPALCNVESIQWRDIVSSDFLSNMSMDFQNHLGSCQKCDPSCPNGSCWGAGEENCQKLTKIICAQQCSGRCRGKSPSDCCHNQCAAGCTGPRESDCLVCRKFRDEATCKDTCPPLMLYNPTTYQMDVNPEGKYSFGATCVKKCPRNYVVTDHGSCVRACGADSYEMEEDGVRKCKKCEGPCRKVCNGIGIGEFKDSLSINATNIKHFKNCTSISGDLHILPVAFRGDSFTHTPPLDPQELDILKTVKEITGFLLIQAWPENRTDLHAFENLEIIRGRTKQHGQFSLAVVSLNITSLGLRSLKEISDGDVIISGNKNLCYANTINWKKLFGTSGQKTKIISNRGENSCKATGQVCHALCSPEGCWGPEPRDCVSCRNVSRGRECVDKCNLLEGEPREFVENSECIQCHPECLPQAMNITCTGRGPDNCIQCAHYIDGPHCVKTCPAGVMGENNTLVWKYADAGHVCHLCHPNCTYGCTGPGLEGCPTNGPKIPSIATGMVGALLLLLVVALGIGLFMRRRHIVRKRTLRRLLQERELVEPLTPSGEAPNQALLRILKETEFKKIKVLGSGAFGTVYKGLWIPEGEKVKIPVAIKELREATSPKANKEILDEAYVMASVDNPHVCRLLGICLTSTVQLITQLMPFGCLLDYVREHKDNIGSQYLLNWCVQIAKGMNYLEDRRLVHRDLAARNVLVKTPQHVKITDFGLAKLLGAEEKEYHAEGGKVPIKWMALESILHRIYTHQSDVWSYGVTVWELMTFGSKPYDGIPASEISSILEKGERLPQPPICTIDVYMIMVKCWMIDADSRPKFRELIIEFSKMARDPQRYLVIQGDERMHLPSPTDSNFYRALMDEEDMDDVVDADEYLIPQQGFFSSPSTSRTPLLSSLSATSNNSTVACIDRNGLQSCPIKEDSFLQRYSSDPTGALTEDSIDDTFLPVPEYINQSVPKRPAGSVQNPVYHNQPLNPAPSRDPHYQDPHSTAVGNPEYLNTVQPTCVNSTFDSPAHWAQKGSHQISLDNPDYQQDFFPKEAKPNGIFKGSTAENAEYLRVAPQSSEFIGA

HDAC2 = HDAC2 (Homo sapiens, UniProt Q92769); assay: In vitro HDAC inhibition assay, HDAC2
Sequence of HDAC2 (Q92769 whole entry): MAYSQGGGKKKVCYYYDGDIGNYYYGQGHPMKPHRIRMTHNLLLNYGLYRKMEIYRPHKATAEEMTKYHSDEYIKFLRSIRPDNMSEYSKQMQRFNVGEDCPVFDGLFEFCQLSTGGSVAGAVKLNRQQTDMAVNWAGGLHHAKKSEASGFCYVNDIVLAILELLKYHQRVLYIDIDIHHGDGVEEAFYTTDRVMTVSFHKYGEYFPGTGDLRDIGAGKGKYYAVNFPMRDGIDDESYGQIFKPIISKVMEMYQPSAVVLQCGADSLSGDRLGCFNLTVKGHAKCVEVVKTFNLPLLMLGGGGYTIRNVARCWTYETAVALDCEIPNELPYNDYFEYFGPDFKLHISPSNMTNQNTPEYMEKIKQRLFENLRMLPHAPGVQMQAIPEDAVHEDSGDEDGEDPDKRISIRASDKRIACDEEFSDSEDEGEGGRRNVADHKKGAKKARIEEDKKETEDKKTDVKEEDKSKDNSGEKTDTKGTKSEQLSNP

HDAC6 = target: T1, HDAC6 (Homo sapiens, UniProt Q9UBN7); assay: In vitro HDAC inhibition assay, HDAC6
T1 sequence (Q9UBN7 1-1215): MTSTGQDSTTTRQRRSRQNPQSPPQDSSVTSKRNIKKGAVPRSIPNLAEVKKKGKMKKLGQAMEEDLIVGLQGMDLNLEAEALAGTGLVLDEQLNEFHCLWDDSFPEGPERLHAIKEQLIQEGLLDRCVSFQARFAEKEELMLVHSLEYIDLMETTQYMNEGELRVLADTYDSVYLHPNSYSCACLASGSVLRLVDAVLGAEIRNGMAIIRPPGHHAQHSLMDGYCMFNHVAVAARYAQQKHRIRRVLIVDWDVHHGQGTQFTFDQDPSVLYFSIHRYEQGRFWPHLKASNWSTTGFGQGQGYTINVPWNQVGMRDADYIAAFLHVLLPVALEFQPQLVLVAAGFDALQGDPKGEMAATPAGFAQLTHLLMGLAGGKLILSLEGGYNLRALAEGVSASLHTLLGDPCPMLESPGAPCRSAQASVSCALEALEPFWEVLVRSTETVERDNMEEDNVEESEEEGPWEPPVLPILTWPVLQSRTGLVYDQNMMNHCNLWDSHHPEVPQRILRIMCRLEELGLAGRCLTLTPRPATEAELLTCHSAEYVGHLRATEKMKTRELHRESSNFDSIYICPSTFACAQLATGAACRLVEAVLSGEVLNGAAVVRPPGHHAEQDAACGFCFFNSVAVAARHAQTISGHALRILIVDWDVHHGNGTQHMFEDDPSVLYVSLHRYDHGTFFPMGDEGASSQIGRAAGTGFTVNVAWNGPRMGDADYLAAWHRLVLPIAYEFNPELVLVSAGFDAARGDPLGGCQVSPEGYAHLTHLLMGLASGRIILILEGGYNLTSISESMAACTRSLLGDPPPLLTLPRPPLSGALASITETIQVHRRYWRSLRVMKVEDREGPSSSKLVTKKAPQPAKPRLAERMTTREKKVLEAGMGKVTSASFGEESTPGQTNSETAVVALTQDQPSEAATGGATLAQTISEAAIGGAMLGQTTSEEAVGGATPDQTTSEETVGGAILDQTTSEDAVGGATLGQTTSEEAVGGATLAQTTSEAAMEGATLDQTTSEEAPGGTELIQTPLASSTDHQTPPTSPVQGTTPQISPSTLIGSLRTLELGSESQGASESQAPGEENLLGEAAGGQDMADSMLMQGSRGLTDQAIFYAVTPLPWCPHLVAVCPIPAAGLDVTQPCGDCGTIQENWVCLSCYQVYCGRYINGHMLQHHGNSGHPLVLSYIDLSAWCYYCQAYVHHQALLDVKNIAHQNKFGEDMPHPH

HDAC1 = HDAC1 (Homo sapiens, UniProt Q13547); assay: In vitro HDAC inhibition assay, HDAC1
Sequence of HDAC1 (Q13547 whole entry): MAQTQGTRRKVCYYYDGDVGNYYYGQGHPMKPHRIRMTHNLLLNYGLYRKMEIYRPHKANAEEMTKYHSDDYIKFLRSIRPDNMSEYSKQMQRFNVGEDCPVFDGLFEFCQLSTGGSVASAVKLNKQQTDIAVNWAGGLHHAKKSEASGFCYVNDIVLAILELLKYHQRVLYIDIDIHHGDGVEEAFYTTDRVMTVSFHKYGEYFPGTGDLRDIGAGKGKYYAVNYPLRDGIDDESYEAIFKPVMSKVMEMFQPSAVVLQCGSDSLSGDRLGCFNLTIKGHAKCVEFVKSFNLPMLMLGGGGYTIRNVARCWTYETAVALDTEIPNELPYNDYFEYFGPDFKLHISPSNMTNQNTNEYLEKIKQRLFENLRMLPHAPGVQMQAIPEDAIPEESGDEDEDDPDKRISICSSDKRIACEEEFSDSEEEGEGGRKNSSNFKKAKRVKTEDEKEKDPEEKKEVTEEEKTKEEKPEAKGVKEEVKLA

HDAC8 = target: T2, HDAC8 (Homo sapiens, UniProt Q9BY41); assay: In vitro HDAC inhibition assay, HDAC8
T2 sequence (Q9BY41 1-377): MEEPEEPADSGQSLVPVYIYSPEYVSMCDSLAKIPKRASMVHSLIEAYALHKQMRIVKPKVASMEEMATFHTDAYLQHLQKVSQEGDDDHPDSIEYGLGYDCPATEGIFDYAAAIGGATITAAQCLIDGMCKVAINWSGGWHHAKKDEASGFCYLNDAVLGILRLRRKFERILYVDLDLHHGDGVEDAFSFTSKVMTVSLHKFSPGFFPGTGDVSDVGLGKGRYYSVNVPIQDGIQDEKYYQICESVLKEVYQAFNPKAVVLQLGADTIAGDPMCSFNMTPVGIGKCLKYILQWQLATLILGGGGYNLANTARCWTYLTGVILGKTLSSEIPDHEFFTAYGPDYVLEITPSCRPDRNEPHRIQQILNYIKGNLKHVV

HDAC4 = HDAC4 (Homo sapiens, UniProt P56524); assay: In vitro HDAC inhibition assay, HDAC4
Sequence of HDAC4 (P56524 whole entry): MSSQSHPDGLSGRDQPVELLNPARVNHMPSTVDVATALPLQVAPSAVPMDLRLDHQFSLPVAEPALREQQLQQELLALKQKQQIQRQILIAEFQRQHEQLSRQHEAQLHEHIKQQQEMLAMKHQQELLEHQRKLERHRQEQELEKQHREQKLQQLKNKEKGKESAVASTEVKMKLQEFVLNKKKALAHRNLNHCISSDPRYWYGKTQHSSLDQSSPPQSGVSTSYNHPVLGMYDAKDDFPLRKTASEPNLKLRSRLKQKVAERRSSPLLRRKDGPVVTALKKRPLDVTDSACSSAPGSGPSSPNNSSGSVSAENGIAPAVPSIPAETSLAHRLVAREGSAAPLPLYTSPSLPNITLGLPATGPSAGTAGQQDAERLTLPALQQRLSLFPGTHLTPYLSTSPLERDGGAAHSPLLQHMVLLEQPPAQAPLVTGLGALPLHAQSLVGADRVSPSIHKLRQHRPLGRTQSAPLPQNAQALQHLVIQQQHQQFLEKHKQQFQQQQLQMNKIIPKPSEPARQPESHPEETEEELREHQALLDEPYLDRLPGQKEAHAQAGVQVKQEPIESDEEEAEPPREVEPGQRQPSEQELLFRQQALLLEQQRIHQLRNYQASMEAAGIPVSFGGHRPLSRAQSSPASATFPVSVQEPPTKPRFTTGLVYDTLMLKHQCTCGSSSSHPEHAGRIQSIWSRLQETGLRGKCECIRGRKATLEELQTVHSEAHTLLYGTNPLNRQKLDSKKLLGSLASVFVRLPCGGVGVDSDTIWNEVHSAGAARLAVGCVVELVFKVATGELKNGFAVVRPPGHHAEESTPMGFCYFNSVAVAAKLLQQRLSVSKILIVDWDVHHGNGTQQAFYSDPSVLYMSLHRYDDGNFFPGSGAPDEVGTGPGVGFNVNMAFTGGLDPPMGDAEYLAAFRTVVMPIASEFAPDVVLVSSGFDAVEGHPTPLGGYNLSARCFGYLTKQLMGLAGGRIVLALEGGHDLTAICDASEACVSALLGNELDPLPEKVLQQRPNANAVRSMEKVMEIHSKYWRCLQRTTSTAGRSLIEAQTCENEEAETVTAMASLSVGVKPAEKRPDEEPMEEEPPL

SMILES | IC50 (MCF-7) [µM] | IC50 (HCT116) [µM] | melting point [°C] | IC50 (A549) [µM] | IC50 (HepG2) [µM] | Caspase-3 Conc (Caspase-3) [pg/mL] | Caspase-3 Conc (Caspase-3; listed as staurosporine) [pg/mL] | Bax Conc (Bax) [pg/mL] | Bax Conc (Bax; listed as staurosporine) [pg/mL] | Caspase-8 Conc (Caspase-8) [ng/mL] | Caspase-8 Conc (Caspase-8; listed as staurosporine) [ng/mL] | IC50 (EGFR) [nM] | IC50 (HDAC2) [nM] | IC50 (HDAC6) [nM] | IC50 (HDAC1) [nM] | IC50 (HDAC8) [µM] | IC50 (HDAC4) [µM]
COc1cc(/C=C/C(=O)c2ccc(OCCCCCCC(=O)O)cc2)cc(OC)c1OC [2c, (E)-7-(4-(3-(3,4,5-Trimethoxyphenyl)Acryloyl)Phenoxy)Heptanoic Acid] | 14.8 ± 0.8 | 16.5 ± 0.89 | 112 to 115 | 22.7 ± 1.22 | 17.1 ± 0.92 | – | – | – | – | – | – | – | – | – | – | – | –
COc1cc(-c2cc(-c3ccc(OCCCCCCC(=O)O)cc3)[nH]c(=O)c2C#N)cc(OC)c1OC [3c, 7-(4-(5-Cyano-6-Oxo-4-(3,4,5-Trimethoxyphenyl)-1,6-Dihydropyridin-2-yl)Phenoxy) Heptanoic Acid] | 23.7 ± 1.28 | 13.9 ± 0.75 | 168 to 170 | 21.3 ± 1.15 | 21.1 ± 1.14 | – | – | – | – | – | – | – | – | – | – | – | –
COc1cc(-c2cc(-c3ccc(OCCCCCC(=O)O)cc3)[nH]c(=O)c2C#N)cc(OC)c1OC [3b, 6-(4-(5-Cyano-6-Oxo-4-(3,4,5-Trimethoxyphenyl)-1,6-Dihydropyridin-2-yl)Phenoxy) Hexanoic Acid] | 12.2 ± 0.65 | 15.7 ± 0.85 | – | 15.3 ± 0.82 | 16.2 ± 0.87 | – | – | – | – | – | – | – | – | – | – | – | –
COc1cc(/C=C/C(=O)c2ccc(OCCCCC(=O)O)cc2)cc(OC)c1OC [2a, (E)-5-(4-(3-(3,4,5-Trimethoxyphenyl)Acryloyl)Phenoxy)Pentanoic Acid] | 59.9 ± 3.23 | 40.1 ± 2.16 | 102 to 105 | 44.4 ± 2.39 | 88.4 ± 4.76 | – | – | – | – | – | – | – | – | – | – | – | –
COc1cc(-c2cc(-c3ccc(OCCCCCC(=O)NO)cc3)[nH]c(=O)c2C#N)cc(OC)c1OC [5b, 6-(4-(5-Cyano-6-Oxo-4-(3,4,5-Trimethoxyphenyl)-1,6-Dihydropyridin-2-yl)Phenoxy)-N-Hydroxyhexanamide] | 19.6 ± 1.05 | 16.9 ± 3.71 | 198 to 204 | 18.8 ± 1.01 | 28.3 ± 0.99 | – | – | – | – | – | – | – | – | – | – | – | –
COc1cc(/C=C/C(=O)c2ccc(OCCCCCC(=O)O)cc2)cc(OC)c1OC [2b, (E)-6-(4-(3-(3,4,5-Trimethoxyphenyl)Acryloyl)Phenoxy)Hexanoic Acid] | 39.4 ± 2.12 | 23.7 ± 1.28 | 138 to 140 | 33.7 ± 1.82 | 30.4 ± 1.64 | – | – | – | – | – | – | – | – | – | – | – | –
CN[C@@H]1C[C@H]2O[C@@](C)([C@@H]1OC)n1c3ccccc3c3c4c(c5c6ccccc6n2c5c31)C(=O)NC4 [Staurosporine, reference compound] | – | – | – | – | – | 445.9 ± 15.39 | 445.9 | 362.2 ± 9.61 | 362.2 | 1.343 ± 0.026 | 1.343 | – | – | – | – | – | –
COc1cc(/C=C/C(=O)c2ccc(OCCCCCCC(=O)NO)cc2)cc(OC)c1OC [4c, (E)-N-Hydroxy-7-(4-(3-(3,4,5-Trimethoxyphenyl)Acryloyl)Phenoxy)Heptanamide] | 1.18 ± 0.06 | 1.59 ± 0.09 | 122 to 128 | 1.93 ± 0.14 | 2.54 ± 0.14 | – | – | – | – | – | – | 91 ± 1 | 277 | 113 | 70 | 5.02 | 8.72
COc1cc(/C=C/C(=O)c2ccc(OCCCCC(=O)NO)cc2)cc(OC)c1OC [4a, (E)-N-Hydroxy-5-(4-(3-(3,4,5-Trimethoxyphenyl)Acryloyl)Phenoxy) Pentanamide] | 1.97 ± 0.11 | 3.21 ± 0.17 | 220 to 224 | 2.07 ± 0.11 | 3.62 ± 0.2 | – | – | – | – | – | – | 111 ± 2 | 119 | 86 | 121 | 6.35 | 6.69
COc1cc(-c2cc(-c3ccc(OCCCCC(=O)NO)cc3)[nH]c(=O)c2C#N)cc(OC)c1OC [5a, 5-(4-(5-Cyano-6-Oxo-4-(3,4,5-Trimethoxyphenyl)-1,6-Dihydropyridin-2-yl)Phenoxy)-N-Hydroxypentanamide] | 4.89 ± 0.26 | 4.67 ± 0.25 | 232 to 238 | 2.3 ± 0.12 | 3.46 ± 0.19 | – | – | – | – | – | – | 214 ± 4 | 256 | 222 | 51 | 19.6 | 17.5
COc1cc(-c2cc(-c3ccc(OCCCCC(=O)O)cc3)[nH]c(=O)c2C#N)cc(OC)c1OC [3a, 5-(4-(5-Cyano-6-Oxo-4-(3,4,5-Trimethoxyphenyl)-1,6-Dihydropyridin-2-yl)Phenoxy)Pentanoic Acid] | 46.4 ± 2.54 | 23.5 ± 1.27 | 224 to 228 | 31 ± 1.67 | 65.8 ± 3.55 | – | – | – | – | – | – | – | – | – | – | – | –
COc1cc(-c2cc(-c3ccc(OCCCCCCC(=O)NO)cc3)[nH]c(=O)c2C#N)cc(OC)c1OC [5c, 7-(4-(5-Cyano-6-Oxo-4-(3,4,5-Trimethoxyphenyl)-1,6-dihydropyridin-2-yl)phenoxy)-N-Hydroxyheptanamide] | 12.1 ± 0.65 | 9.47 ± 0.51 | 170 to 176 | 8.58 ± 0.46 | 27.6 ± 1.49 | – | – | – | – | – | – | – | – | – | – | – | –
